Patent US9139615B2, “High-affinity, dimeric inhibitors of PSD-95 as efficient neuroprotectants against ischemic brain damage and for treatment of pain” (University of Copenhagen, priority 2011, dated 2015)
Several values for one entry are separate records, joined by “and”; a condition that tells them apart may be missing. Identical values can stand only once. Entries after “also recorded” stand apart in the source; their conditions may differ. Like-named read-outs stand apart in the source and are kept apart here. Each block holds one molecule with its values, some of them ahead of it.

How the values were obtained:
[1] = system: pMCAO model of ischemic stroke; test: Grip strength after pMCAO; assay type: in vivo, mice; settings: 48 hours after pMCAO, 3 nmol/g i.v.
Method: The grip strength meter (BIO-GT-3, BIOSEB) allows the study of neuromuscular functions in mice by determining the maximum force that is required to make the mouse release its grip. The grip strength in individual paws was used to measure the severity of the pMCAO-induced asymmetry. The mouse is allowed to grasp a metal grid and then pulled backwards in the horizontal plane. The force applied to the grid is recorded as the peak tension. The strength of individual front paws and the total grip strength (both paws simultaneously) were measured before (baseline) and after pMCAO. Each mouse is tested in 5 sequential trials and the highest grip strength is recorded as the best score.

[2] = Blood-brain barrier permeability of fluorescent analogues; assay type: in vivo, mice
Method: VI.ii. Blood-brain Barrier Permeability. […] After injection of the compounds, the mice are perfused with paraformaldehyde and the brains are carefully removed, post-fixed in paraformaldehyde, processed into coronal sections, and quantified for fluorescence (Example 8).
The fluorescent ligands were injected intravenously (3 nmol/g) and the location of the ligands was detected by fluorescence microscopy of coronal brain slices (n=8) mice, was evaluated 2 hours after injection. Two sections of the brain, prior to and two after the anterior commissure (n=5), were selected for BBB permeability analysis. The anterior commissure (Bregma: −0.3) was used as a fix point in the brain in order to analyse anatomically identical brain sections. The intensity of the 5-FAM fluorophore was measured semi-quantitatively using a fluorescence microscopy system (Olympus System Microscope model BX-51, Denmark) with a 10× objective (Olympus 10×/0.15 UPlanApo) connected to a high-resolution microscope digital camera (Olympus model DP70), which transferred images to an image-capturing software (Image Pro Plus software). All images were taken using the same microscope settings and with constant camera exposure time. Intensities were quantified using the ImageJ software.
5-FAM-labeled derivative of Tat-NR2B9c is designated MS23. After injection of the compounds, the mice are perfused with paraformaldehyde and the brains are carefully removed, post-fixed in paraformaldehyde, processed into coronal sections, and quantified for fluorescence.
C57BL/6 mice with 6 hour post-surgical survival time were euthanized by cervical dislocation. C57BL/6 mice with 48 hour post-surgical survival were anesthetized with an overdosed of pentobarbital (the pharmacy of the Faculty of Life Sciences, University of Copenhagen, Denmark) in order to collect blood and tissue samples. All brains were carefully removed, frozen in gaseous CO2 and cut into 6 series of 30 μm coronal cryostat sections and stored at −80° C. until further use. C57BL/6J mice used to investigate the blood-brain barrier (BBB) permeability of AB143, AB145, AB148, and MS23 were deeply anesthetized and perfused through the left ventricle, using 10 ml chilled Soerensens phosphate buffer (SB) ([…], 125 mM Na2HPO4, pH 7.4) followed by 20 mL SB containing 4% paraformaldehyde (PFA). The brains were carefully removed and post-fixed in 4% PFA for 1 hour followed by immersion in SB containing 20% sucrose over night. The brains were frozen on gaseous CO2 and processed into 16 μm coronal cryostat sections.

[3] = system: pMCAO model of ischemic stroke; test: Rotarod performance test after pMCAO; assay type: in vivo, mice; settings: 48 hours after pMCAO; for total time spent on the rod: 3 nmol/g i.v., four trials; for short term learning skill improvement on rotarod compared to saline: trials T1-T4
Method: The rotarod (LE 8200, Panlab) is well suited to evaluate motor activity in rodents, experimental compound effects on central nervous system damage, or disease effects on motor coordination, assessed by the time during which the animal remains walking in a rotating drum. The rotation of the rotarod is motor drived and accelerates from 0 to 40 rounds per min (rpm) over a time period of 5 min, at which time all mice have fallen off the rod. All mice were tested in 4 repeating trials with a 20 min interval (resting time). Prior to surgery mice were pre-trained to stay on the rod for 30 seconds, at 4 rpm.

[4] = Physiological status of pMCAO mice (blood values, body weight, temperature, survival); assay type: in vivo
Method: The physiological status of the mice was carefully monitored prior to and during pMCAO surgery in order to exclude the observed effects of treatment with dimeric PSD-95 inhibitors being due to secondary conditions (e.g. disease-related) resulting from the experimental procedure.
9.10 Body weight monitoring: The body weight of each mouse was registered during pre-training, before surgery, and at 24 and 48 hours after surgery and no differences were seen between the treatment groups (FIG. 13).
9.11 Temperature monitoring: The rectal temperature of the mouse was continuously measured using a thermocoupled probe connected to a Model Bat 12 unit (Physitemp). The temperature was measured prior to and 30 min after pMCAO in addition to 30 min and 2.5 hours after i.v. injection, i.e. 1 and 3 hours after pMCAO.
9.12 Blood gas analysis: One samples of venous blood was taken for blood gas analysis of PO2/PCO2 electrolytes, glucose, lactate, and hematocrit, 30 min after compound administration (1 hour after pMCAO). A capillary heparin coated tube was inserted along the inner corner of eye and turned until it penetrated the conjunctiva. A sample of blood (150 μl) was collected and stored on ice until gas analysis using the GEM Premier 300 blood gas instrument (Instrumentation Laboratory) Quality controls (QC ContrlIL9) were purchased from IL Sensor Systems. Also, no differences were detected in blood gas parameters (PO2/PCO2, pH, electrolytes, glu/lac), which were similar between the groups and within normal range, when compared to unmanipulated control mice (Table 4).

[5] = Human blood plasma stability assay; assay type: in vitro ADME; settings: for half-life at 0.25 mM: human, 37° C., in vitro, read-out: half-life (T1/2) in human blood plasma
Method: Ligands (dimeric PSD-95 inhibitors) for the PDZ domain of PSD-95 were dissolved in human blood plasma (270 μL; 3H Biomedical, Sweden, cat no 1300-1-P50) to a concentration of 0.25 mM (30 μL, of 2.5 mM) and incubated at 37° C. Aliquots (30 μL) were removed at various time intervals (e.g. 0, 5, 10, 20, 40, 80, 160, 320, 960, 1280, 2550, 4560 and 7240 min) and quenched with 60 μL, trichloroacetic acid (aq., 5%). The aliquots were vortexed, and incubated 15 min, at 4° C. prior to centrifugation at 18,000 g for 2 min. The supernatants were analyzed by analytical RP-HPLC (UV218) to quantify compound relative to time zero, and also evaluated qualitatively by ESI-LC/MS in order to identify the compound (m/z) in the sample. Procaine (positive control) and procainamide (negative control) were investigated at 50 μM to validate the procedure. Ligand recoveries following the precipitation procedure were between 85-95%.

[6] = system: CFA-induced mechanical allodynia/hyperalgesia; test: Complete Freund's adjuvant (CFA) inflammatory pain, von Frey test; assay type: in vivo, mice; settings: administered concurrently with CFA, 1 hour and 24 hours after treatment
[7] = Spinal cord detection of fluorescent PSD-95 inhibitors; assay type: in vivo, mice
Method: To investigate if AB143 and AB145 are able to enter spinal cord tissue, they were administered to the mice by intraperitoneal injection (30 mg/kg). The drug-treated mice were decapitated 30 min after injection, and the spinal cord was carefully dissected out, to which 5% trichloroacetic acid (TCA) (300 μL per 0.1 g tissue) was added and the tissue homogenized with an ultrasonic homogenizer (on ice). The homogenated tissue was vortexed and centrifuged for 10 min (20000 g at 4° C.). The supernatant was transferred to a test tube and evaporated, and the residue was reconstituted in water and its fluoresence intensity was determined by using a fluorescence plate reader (excitation/emission:470/525 nm). For quantification of the compounds, a standard curve was prepared by spiking a known amount of AB143 and AB145 into spinal cord tissue from control mice prior to homogenization, followed by work-up and analysis similar to the drug-treated mice.

[8] = pMCAO 48 h experiment, 1 hour after surgery, mean ± SEM
[9] = 30 mg/kg i.p., 30 min after injection, mice

SMILES: CC[C@H](C)[C@H](NC(=O)CCOCCOCCN(CCOCCOCCC(=O)N[C@H](C(=O)N[C@@H](CCC(=O)O)C(=O)N[C@H](C(=O)N[C@@H](CC(=O)O)C(=O)N[C@H](C(=O)O)C(C)C)[C@@H](C)O)[C@@H](C)CC)C(=O)[C@H](CCCNC(=N)N)NC(=O)[C@H](CCCNC(=N)N)NC(=O)[C@H](CCCNC(=N)N)NC(=O)[C@H](CCC(N)=O)NC(=O)[C@H](CCCNC(=N)N)NC(=O)[C@H](CCCNC(=N)N)NC(=O)[C@H](CCCCN)NC(=O)[C@H](CCCCN)NC(=O)[C@H](CCCNC(=N)N)NC(=O)CNC(=O)[C@@H](N)Cc1ccc(O)cc1)C(=O)N[C@@H](CCC(=O)O)C(=O)N[C@H](C(=O)N[C@@H](CC(=O)O)C(=O)N[C@H](C(=O)O)C(C)C)[C@@H](C)O [AB144, Tat-NPEG4(IETDV)2]
grip strength asymmetry between right and left front paw [1]: no asymmetry and not
total grip strength (both paws) compared to baseline [1]: no significant change in total grip strength; also recorded: No difference compared to baseline
ability to enter the brain (concluded from fluorescent surrogates) ([2]; mice, conclusion for unlabeled compounds): ability to cross the blood-brain barrier; also recorded: able to enter the brain
total time spent on the rod [3]: 83.5 ± 4.1 s
short term learning skill improvement on rotarod compared to saline [3]: more pronounced short term learning skill improvement
blood pH ([4]; pMCAO 48 h experiment, 1 hour after surgery, 3 nmol/g i.v., mean ± SEM): 7.16 ± 0.01
Hct [4, 8]: 43.5 ± 0.9%
[Ca2+] [4, 8]: 1.30 ± 0.02 mmol/L
[K+] [4, 8]: 5.2 ± 0.20 mmol/L
[Lactate] [4, 8]: 0.93 ± 0.07 mmol/L
[Na+] [4, 8]: 148 ± 2.0 mmol/L
pCO2 [4, 8]: 95.7 ± 2.3 mmHg
pO2 [4, 8]: 50.2 ± 2.2 mmHg
half-life at 0.25 mM ([5]; plasma): 81.7 ± 1.67 h
CFA-induced mechanical hyperalgesia [6]: prevented the development of CFA-induced mechanical hyperalgesia
ability to enter spinal cord tissue (concluded from fluorescent surrogates) ([7]; conclusion for unlabeled compounds): able to enter CNS spinal cord tissue at relevant concentrations

SMILES: CC[C@H](C)[C@H](NC(=O)CCOCCOCCN(CCOCCOCCC(=O)N[C@H](C(=O)N[C@@H](CCC(=O)O)C(=O)N[C@H](C(=O)N[C@@H](CC(=O)O)C(=O)N[C@H](C(=O)O)C(C)C)[C@@H](C)O)[C@@H](C)CC)C(=O)[C@H](CCCNC(=N)N)NC(=O)[C@H](CCCNC(=N)N)NC(=O)[C@H](CCCNC(=N)N)NC(=O)[C@H](CCC(N)=O)NC(=O)[C@H](CCCNC(=N)N)NC(=O)[C@H](CCCNC(=N)N)NC(=O)[C@H](CCCCN)NC(=O)[C@H](CCCCN)NC(=O)[C@H](CCCNC(=N)N)NC(=O)CNC(=O)[C@H](Cc1ccc(O)cc1)NC(=O)c1ccc2c(c1)C(=O)OC21c2ccc(O)cc2Oc2cc(O)ccc21)C(=O)N[C@@H](CCC(=O)O)C(=O)N[C@H](C(=O)N[C@@H](CC(=O)O)C(=O)N[C@H](C(=O)O)C(C)C)[C@@H](C)O [AB145, F-Tat-NPEG4(IETDV)2]
entry into brain, fluorescence microscopy of coronal brain slices ([2]; 5-FAM-labeled, 3 nmol/g i.v., 2 hours after injection, unmanipulated mice): enter the brain; also recorded: Detection
fluorescence in spinal cord tissue compared to saline-treated mice ([7]; 30 mg/kg i.p., 30 min after injection): clear and distinct fluorescence increase
concentration in spinal cord, Average ± SEM [7, 9]: 0.074 nmol/g and 0.074 ± 0.022 nmol/g
concentration in spinal cord, individual samples [7, 9]: 0.035 nmol/g and 0.132 nmol/g and 0.108 nmol/g and 0.084 nmol/g and 0.012 nmol/g

degradation in human blood plasma [5]: No detectable degradation
SMILES: CC[C@H](C)[C@H](NC(=O)CCOCCOCCN(CCOCCOCCC(=O)N[C@H](C(=O)N[C@@H](CCC(=O)O)C(=O)N[C@H](C(=O)N[C@@H](CC(=O)O)C(=O)N[C@H](C(=O)O)C(C)C)[C@@H](C)O)[C@@H](C)CC)C(=O)[C@@H](CCCNC(=N)N)NC(=O)[C@@H](CCCCN)NC(=O)[C@@H](CCCCN)NC(=O)[C@@H](CCCNC(=N)N)NC(=O)[C@@H](CCCNC(=N)N)NC(=O)[C@@H](CCC(N)=O)NC(=O)[C@@H](CCCNC(=N)N)NC(=O)[C@@H](CCCNC(=N)N)NC(=O)[C@H](N)CCCNC(=N)N)C(=O)N[C@@H](CCC(=O)O)C(=O)N[C@H](C(=O)N[C@@H](CC(=O)O)C(=O)N[C@H](C(=O)O)C(C)C)[C@@H](C)O [AB147, Retroinverso-D-Tat-NPEG4(IETDV)2]
grip strength asymmetry between right and left front paw [1]: no asymmetry and not
total grip strength (both paws) compared to baseline [1]: no significant change in total grip strength; also recorded: No difference compared to baseline
total time spent on the rod [3]: 92.6 ± 4.5 s
short term learning skill improvement on rotarod compared to saline [3]: more pronounced short term learning skill improvement
Hct ([4]; mouse, in vivo): 41.3 ± 0.6%
[Ca2+] ([4]; mouse, in vivo): 1.31 ± 0.01 mmol/L
[K+] ([4]; mouse, in vivo): 5.1 ± 0.18 mmol/L
[Lactate] ([4]; mouse, in vivo): 0.90 ± 0.05 mmol/L
[Na+] ([4]; mouse, in vivo): 147 ± 0.5 mmol/L
pCO2 ([4]; mouse, in vivo): 104 ± 2.5 mmHg
pO2 ([4]; mouse, in vivo): 56.4 ± 2.9 mmHg

half-life at 0.25 mM ([5]; human blood plasma): 0.617 ± 0.1 h
SMILES: CC[C@H](C)[C@H](N)C(=O)N[C@@H](CCC(=O)O)C(=O)N[C@H](C(=O)N[C@@H](CC(=O)O)C(=O)N[C@H](C(=O)O)C(C)C)[C@@H](C)O [IETDV, reference compound]
